Consider 2 compounds from publication doi:10.1101/2023.11.24.568596v1 (biorxiv, 2023).

SMILES strings stand for the structures.

Some targets named below: DYRK1A (Homo sapiens, UniProt Q13627); MST4 (Homo sapiens, UniProt Q9P289); CHK2 (Homo sapiens, UniProt O96017); CaMK2b (Homo sapiens, UniProt Q13554).
Settings in all cases: binder

Chain of CHK2 (O96017 whole entry): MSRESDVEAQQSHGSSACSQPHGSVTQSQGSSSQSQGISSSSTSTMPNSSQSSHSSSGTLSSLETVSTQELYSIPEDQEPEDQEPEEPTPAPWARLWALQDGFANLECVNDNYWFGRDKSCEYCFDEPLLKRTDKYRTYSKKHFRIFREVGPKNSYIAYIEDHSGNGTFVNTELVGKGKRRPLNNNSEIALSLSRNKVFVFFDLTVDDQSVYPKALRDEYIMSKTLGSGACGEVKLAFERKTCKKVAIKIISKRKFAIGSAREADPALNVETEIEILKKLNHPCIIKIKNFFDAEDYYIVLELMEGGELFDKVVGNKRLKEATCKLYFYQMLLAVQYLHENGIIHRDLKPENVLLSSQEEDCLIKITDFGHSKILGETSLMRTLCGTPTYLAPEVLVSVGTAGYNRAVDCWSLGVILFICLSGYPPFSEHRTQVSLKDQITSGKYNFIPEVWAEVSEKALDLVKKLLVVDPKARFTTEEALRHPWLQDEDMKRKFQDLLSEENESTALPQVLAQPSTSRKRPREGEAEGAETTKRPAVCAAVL
Chain of CaMK2b (Q13554 whole entry): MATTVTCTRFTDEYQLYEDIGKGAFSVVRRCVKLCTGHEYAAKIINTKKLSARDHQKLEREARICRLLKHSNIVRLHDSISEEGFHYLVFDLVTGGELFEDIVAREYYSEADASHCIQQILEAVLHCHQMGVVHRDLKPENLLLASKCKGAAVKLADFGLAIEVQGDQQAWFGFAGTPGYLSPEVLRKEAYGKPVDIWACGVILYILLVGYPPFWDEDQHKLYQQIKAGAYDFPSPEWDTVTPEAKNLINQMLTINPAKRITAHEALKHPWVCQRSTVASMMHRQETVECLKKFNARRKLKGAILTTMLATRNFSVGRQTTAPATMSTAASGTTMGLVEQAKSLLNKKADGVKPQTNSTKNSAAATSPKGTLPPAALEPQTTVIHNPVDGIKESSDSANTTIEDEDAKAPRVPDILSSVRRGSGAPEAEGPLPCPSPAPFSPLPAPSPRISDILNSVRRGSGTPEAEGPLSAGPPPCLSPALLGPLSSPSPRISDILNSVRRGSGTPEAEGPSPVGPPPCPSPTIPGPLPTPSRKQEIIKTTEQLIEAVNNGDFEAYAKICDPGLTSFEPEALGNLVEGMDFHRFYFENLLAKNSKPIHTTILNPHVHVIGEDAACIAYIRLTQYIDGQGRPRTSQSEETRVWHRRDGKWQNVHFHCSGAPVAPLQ
Chain of MST4 (Q9P289 whole entry): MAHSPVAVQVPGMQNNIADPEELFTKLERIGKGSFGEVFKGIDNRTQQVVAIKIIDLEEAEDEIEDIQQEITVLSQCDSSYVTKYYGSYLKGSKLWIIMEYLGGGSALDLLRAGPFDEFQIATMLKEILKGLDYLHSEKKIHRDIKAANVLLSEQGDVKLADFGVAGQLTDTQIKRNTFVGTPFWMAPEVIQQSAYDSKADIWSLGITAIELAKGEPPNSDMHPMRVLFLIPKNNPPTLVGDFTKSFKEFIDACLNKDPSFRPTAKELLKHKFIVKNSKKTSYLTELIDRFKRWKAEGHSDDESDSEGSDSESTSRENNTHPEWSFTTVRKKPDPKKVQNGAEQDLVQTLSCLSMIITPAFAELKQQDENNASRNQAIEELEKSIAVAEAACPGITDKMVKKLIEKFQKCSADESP

As for `Cc1cccc(-c2ccc(-c3cc4cnc(Nc5ccc(CCCO)cc5)nc4n(CCCCN)c3=O)c(Cl)c2)n1` [compound 30, 8-(4-Aminobutyl)-6-(2-chloro-4-(6-methylpyridin-2-yl)phenyl)-2-((4-(3-hydroxypropyl)phenyl)amino)pyrido[2,3-d]pyrimidin-7(8H)-one], the “ΔTm 30” value was -1.8 °C on DYRK1A, 15.3 °C on MST4, 10.4 °C at CHK2 and 0.3 °C at CaMK2b.
Consider `Cc1cccc(-c2ccc(-c3cc4cnc(NCCCN5CCCC5=O)nc4n(CCCCN)c3=O)c(Cl)c2)n1` [compound 27, MR30], for which the “ΔTm MR30 (27)” value was -1.2 °C on DYRK1A, 7.9 °C at MST4, 2.5 °C on CHK2 and -1.1 °C on CaMK2b.
